In PubChem BioAssay AID1259407 (Chemical Carcinogenesis Research Information System (CCRIS), 2018) one finds mutagenic call data, which are given here for five compounds.

The data set concerns CCRIS mutagenicity, Ames/micronucleus/aberration tests. Put plainly: CCRIS mutagenicity studies. To be noted: Test System: AMES SALMONELLA TYPHIMURIUM
From the text: The CCRIS database contains chemical records with carcinogenicity, mutagenicity, tumor promotion, and tumor inhibition test results. It was developed by the National Cancer Institute (NCI). Data are derived from studies cited in primary journals, current awareness tools, NCI reports, and other sources. Test results have been reviewed by experts in carcinogenesis and mutagenesis.
CCRIS provides historical information from the years 1985 - 2011. It is no longer updated.
This is an archive assay for CCRIS mutagenicity studies.

The mark [1] stands for this setting: Strain/Indicator: TA98, Metabolic Activation: NONE, Method: STANDARD PLATE.
Where [2] appears, read: Strain/Indicator: TA100, Metabolic Activation: NONE, Method: STANDARD PLATE.
[3] abbreviates: Strain/Indicator: TA98, Metabolic Activation: HAMSTER, LIVER, S-9, AROCLOR 1254 (10%), Method: PREINCUBATION
The mark [4] stands for this setting: Strain/Indicator: TA98, Metabolic Activation: NONE, Method: PREINCUBATION
Setting [5] is: Strain/Indicator: TA98, Metabolic Activation: RAT, LIVER, S-9, AROCLOR 1254 (10%), Method: PREINCUBATION
Where [6] appears, read: Strain/Indicator: TA100, Metabolic Activation: HAMSTER, LIVER, S-9, AROCLOR 1254 (10%), Method: PREINCUBATION
The mark [7] stands for this setting: Strain/Indicator: TA100, Metabolic Activation: NONE, Method: PREINCUBATION
The mark [8] stands for this setting: Strain/Indicator: TA100, Metabolic Activation: RAT, LIVER, S-9, AROCLOR 1254 (10%), Method: PREINCUBATION
Where [9] appears, read: Strain/Indicator: TA1535, Metabolic Activation: NONE, Method: PREINCUBATION
[10] abbreviates: Strain/Indicator: TA1535, Metabolic Activation: RAT, LIVER, S-9, AROCLOR 1254 (10%), Method: PREINCUBATION
The mark [11] stands for this setting: Strain/Indicator: TA1537, Metabolic Activation: NONE, Method: PREINCUBATION
Where [12] appears, read: Strain/Indicator: TA98, Metabolic Activation: RAT, LIVER, S-9, AROCLOR 1254, Method: STANDARD PLATE.
The mark [13] stands for this setting: Strain/Indicator: TA100, Metabolic Activation: RAT, LIVER, S-9, AROCLOR 1254, Method: STANDARD PLATE.

SMILES strings stand for the structures. Calls of active or inactive are those of the source. The rule behind the calls is not given here.

For `Cn1cc(C[C@@]2(O)C(=O)O[C@@H]3[C@@H](O)CO[C@@]32O)c2ccccc21`, the mutagenic call is “active; positive” under setting [1]; “active; positive” (Strain/Indicator: TA98, Metabolic Activation: RAT, LIVER, S-9, PCB, Method: STANDARD PLATE); “active; positive” under setting [2]; “active; positive” (Strain/Indicator: TA100, Metabolic Activation: RAT, LIVER, S-9, PCB, Method: STANDARD PLATE).

`CC=C(C)C#N`: the mutagenic call (Strain/Indicator: TA97, Metabolic Activation: HAMSTER, LIVER, S-9, AROCLOR 1254 (10 OR 30%), Method: PREINCUBATION) was “inactive; negative”; the mutagenic call (Strain/Indicator: TA97, Metabolic Activation: HAMSTER, LIVER, S-9, AROCLOR 1254 (30%), Method: PREINCUBATION) was “inactive; negative”; the mutagenic call (Strain/Indicator: TA97, Metabolic Activation: NONE, Method: PREINCUBATION) was “inactive; negative”; the mutagenic call (Strain/Indicator: TA97, Metabolic Activation: RAT, LIVER, S-9, AROCLOR 1254 (10%), Method: PREINCUBATION) was “inactive; negative”; the mutagenic call under setting [3] was “inactive; negative”; the mutagenic call (Strain/Indicator: TA98, Metabolic Activation: HAMSTER, LIVER, S-9, AROCLOR 1254 (30%), Method: PREINCUBATION) was “inactive; negative”. In addition, the mutagenic call reads like this: under setting [4], “inactive; negative”; under setting [5], “inactive; negative”; (Strain/Indicator: TA98, Metabolic Activation: RAT, LIVER, S-9, AROCLOR 1254 (30%), Method: PREINCUBATION) “inactive; negative”; under setting [6], “inactive; negative”; (Strain/Indicator: TA100, Metabolic Activation: HAMSTER, LIVER, S-9, AROCLOR 1254 (30%), Method: PREINCUBATION) “inactive; negative”; under setting [7], “inactive; negative”. For the same compound, the mutagenic call is, setting by setting: under setting [8], “inactive; negative”; (Strain/Indicator: TA100, Metabolic Activation: RAT, LIVER, S-9, AROCLOR 1254 (30%), Method: PREINCUBATION) “inactive; negative”; (Strain/Indicator: TA1535, Metabolic Activation: HAMSTER, LIVER, S-9, AROCLOR 1254 (10 OR 30%), Method: PREINCUBATION) “inactive; negative”; under setting [9], “inactive; negative”; under setting [10], “inactive; negative”; (Strain/Indicator: TA1537, Metabolic Activation: HAMSTER, LIVER, S-9, AROCLOR 1254 (30%), Method: PREINCUBATION) “inactive; negative”. The mutagenic call by setting is: under setting [11], “inactive; negative”; (Strain/Indicator: TA1537, Metabolic Activation: RAT, LIVER, S-9, AROCLOR 1254 (30%), Method: PREINCUBATION) “inactive; negative”.

Take `Cc1ccc(NS(=O)(=O)c2cccc3cccnc23)cc1`: the mutagenic call reads like this: under setting [1], “inactive; negative”; under setting [12], “inactive; negative”; under setting [2], “inactive; negative”; under setting [13], “inactive; negative”; (Strain/Indicator: TA1535, Metabolic Activation: NONE, Method: STANDARD PLATE) “inactive; negative”; (Strain/Indicator: TA1535, Metabolic Activation: RAT, LIVER, S-9, AROCLOR 1254, Method: STANDARD PLATE) “inactive; negative”. The mutagenic call reads like this: (Strain/Indicator: TA1537, Metabolic Activation: NONE, Method: STANDARD PLATE) “inactive; negative”; (Strain/Indicator: TA1537, Metabolic Activation: RAT, LIVER, S-9, AROCLOR 1254, Method: STANDARD PLATE) “inactive; negative”.

For `CNCCO`, the mutagenic call under setting [3] is “inactive; negative”; the mutagenic call under setting [4] is “inactive; negative”; the mutagenic call under setting [5] is “inactive; negative”; the mutagenic call under setting [6] was “inactive; negative”; the mutagenic call under setting [7] was “inactive; negative”; the mutagenic call under setting [8] was “inactive; negative”. Further, the mutagenic call is “inactive; negative” (Strain/Indicator: TA1535, Metabolic Activation: HAMSTER, LIVER, S-9, AROCLOR 1254 (10%), Method: PREINCUBATION); “inactive; negative” under setting [9]; “inactive; negative” under setting [10]; “inactive; negative” (Strain/Indicator: TA1537, Metabolic Activation: HAMSTER, LIVER, S-9, AROCLOR 1254 (10%), Method: PREINCUBATION); “inactive; negative” under setting [11]; “inactive; negative” (Strain/Indicator: TA1537, Metabolic Activation: RAT, LIVER, S-9, AROCLOR 1254 (10%), Method: PREINCUBATION).

Regarding `COP(=O)(OC)SC`, the mutagenic call (Strain/Indicator: TA97, Metabolic Activation: NONE, Method: STANDARD PLATE) is “inactive; negative”; the mutagenic call (Strain/Indicator: TA97, Metabolic Activation: RAT, LIVER, S-9, AROCLOR 1254, Method: PREINCUBATION) was “inactive; negative”; the mutagenic call (Strain/Indicator: TA97, Metabolic Activation: RAT, LIVER, S-9, AROCLOR 1254, Method: STANDARD PLATE) is “inactive; negative”; the mutagenic call under setting [1] was “inactive; negative”; the mutagenic call (Strain/Indicator: TA98, Metabolic Activation: RAT, LIVER, S-9, AROCLOR 1254, Method: PREINCUBATION) is “inactive; negative”; the mutagenic call under setting [12] is “inactive; negative”. The mutagenic call reads like this: under setting [2], “inactive; negative”; (Strain/Indicator: TA100, Metabolic Activation: RAT, LIVER, S-9, AROCLOR 1254, Method: PREINCUBATION) “inactive; negative”; under setting [13], “inactive; negative”.
